Assay results published in patent publication US20140378408A1, “NUCLEOSIDE 5'-PHOSPHOROTHIOATE ANALOGUES AND USES THEREOF” (BAR-ILAN UNIVERSITY, an Israeli University, priority 2012, published 2014).
Where two headings read alike, the source gives them in different places.

Columns and labels:
human P2Y11-R = molecular target: T1, human P2Y11-R (Homo sapiens, UniProt Q96G91); assay: [Ca^2+]i response of 1321N1 astrocytoma cells expressing P2Y11-R GFP; format: cell-based
T1 construct: expressed in transfected cells; host or cells: 1321N1 astrocytoma cells
T1 sequence (Q96G91 1-374): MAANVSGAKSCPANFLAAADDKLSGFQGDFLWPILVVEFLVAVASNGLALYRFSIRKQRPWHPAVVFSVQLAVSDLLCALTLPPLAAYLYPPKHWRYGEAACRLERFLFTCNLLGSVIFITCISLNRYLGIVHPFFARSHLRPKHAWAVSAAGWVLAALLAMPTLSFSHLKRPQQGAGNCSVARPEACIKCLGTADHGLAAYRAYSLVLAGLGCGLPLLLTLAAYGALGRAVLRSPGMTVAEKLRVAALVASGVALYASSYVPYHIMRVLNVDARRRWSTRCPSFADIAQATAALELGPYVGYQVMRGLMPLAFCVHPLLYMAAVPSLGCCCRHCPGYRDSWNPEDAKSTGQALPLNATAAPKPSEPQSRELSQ

human NTPDase8 = molecular target: T2, human NTPDase8 (Homo sapiens, UniProt Q5MY95); assay: Hydrolysis by human NTPDase8; format: in vitro ADME; settings: 100 μM, 1 h, activity with 100 μM ATP = 100%
T2 construct: made in house; host or cells: COS-7 cells (transfected; protein extract)
T2 sequence (Q5MY95 1-495): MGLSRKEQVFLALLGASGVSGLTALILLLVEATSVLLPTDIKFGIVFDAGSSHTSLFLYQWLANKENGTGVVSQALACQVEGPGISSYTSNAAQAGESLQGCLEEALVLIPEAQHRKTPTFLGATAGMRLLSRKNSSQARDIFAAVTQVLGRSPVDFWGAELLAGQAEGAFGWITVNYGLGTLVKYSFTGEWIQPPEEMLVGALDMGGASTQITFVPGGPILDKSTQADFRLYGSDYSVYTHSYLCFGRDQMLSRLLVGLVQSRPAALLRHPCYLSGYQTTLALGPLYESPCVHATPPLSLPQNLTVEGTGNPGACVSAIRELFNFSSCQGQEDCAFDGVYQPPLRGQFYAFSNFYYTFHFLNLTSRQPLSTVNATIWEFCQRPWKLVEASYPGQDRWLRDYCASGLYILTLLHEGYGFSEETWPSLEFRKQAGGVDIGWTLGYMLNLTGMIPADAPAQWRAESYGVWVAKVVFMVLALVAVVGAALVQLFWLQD

human NTPDase2 = molecular target: T3, human NTPDase2 (Homo sapiens, UniProt Q9Y5L3); assay: Inhibition of NTPDase2 activity; format: biochemical; settings: Table 5; ATP and analogue 100 μM; 100% activity = ATP alone
T3 construct: made in house; host or cells: COS-7 cells (transfected; protein extract)
T3 sequence (Q9Y5L3 1-495): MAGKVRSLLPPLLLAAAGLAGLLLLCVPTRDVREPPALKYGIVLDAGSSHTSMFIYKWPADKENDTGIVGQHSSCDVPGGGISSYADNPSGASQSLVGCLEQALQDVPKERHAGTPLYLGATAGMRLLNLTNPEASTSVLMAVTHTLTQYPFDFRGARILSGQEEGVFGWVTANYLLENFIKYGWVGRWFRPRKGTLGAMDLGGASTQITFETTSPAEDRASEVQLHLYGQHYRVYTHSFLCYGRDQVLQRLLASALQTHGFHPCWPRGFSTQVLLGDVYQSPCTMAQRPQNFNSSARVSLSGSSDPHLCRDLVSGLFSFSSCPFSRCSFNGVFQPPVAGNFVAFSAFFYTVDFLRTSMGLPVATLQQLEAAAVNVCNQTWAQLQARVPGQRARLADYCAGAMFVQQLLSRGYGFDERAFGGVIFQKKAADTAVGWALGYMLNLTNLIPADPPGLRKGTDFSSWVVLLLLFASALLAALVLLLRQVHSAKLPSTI

human NTPDase1 = molecular target: T4, human NTPDase1 (Homo sapiens, UniProt P49961); assay: Inhibition of NTPDase1 activity; settings: Table 5; ATP and analogue 100 μM; 100% activity = ATP alone; read as inhibition
T4 sequence (P49961 1-510): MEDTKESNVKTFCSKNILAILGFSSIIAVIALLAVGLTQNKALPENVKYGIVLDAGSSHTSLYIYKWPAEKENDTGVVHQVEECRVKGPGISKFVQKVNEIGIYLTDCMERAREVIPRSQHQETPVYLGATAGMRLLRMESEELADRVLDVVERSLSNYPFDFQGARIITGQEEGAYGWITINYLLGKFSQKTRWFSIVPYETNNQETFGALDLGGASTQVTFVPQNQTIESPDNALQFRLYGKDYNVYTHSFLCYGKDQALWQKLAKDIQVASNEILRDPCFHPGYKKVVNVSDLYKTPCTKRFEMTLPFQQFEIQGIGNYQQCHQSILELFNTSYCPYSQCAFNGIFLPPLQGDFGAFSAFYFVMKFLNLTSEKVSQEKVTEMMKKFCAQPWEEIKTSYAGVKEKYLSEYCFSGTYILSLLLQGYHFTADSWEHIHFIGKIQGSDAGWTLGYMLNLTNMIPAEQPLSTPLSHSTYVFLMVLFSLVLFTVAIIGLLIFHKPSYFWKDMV

human NTPDase3 [1] = molecular target: T5, human NTPDase3 (Homo sapiens, UniProt O75355); assay: Inhibition of NTPDase3 activity; settings: Table 5; ATP and analogue 100 μM; 100% activity = ATP alone
T5 sequence (O75355 1-529): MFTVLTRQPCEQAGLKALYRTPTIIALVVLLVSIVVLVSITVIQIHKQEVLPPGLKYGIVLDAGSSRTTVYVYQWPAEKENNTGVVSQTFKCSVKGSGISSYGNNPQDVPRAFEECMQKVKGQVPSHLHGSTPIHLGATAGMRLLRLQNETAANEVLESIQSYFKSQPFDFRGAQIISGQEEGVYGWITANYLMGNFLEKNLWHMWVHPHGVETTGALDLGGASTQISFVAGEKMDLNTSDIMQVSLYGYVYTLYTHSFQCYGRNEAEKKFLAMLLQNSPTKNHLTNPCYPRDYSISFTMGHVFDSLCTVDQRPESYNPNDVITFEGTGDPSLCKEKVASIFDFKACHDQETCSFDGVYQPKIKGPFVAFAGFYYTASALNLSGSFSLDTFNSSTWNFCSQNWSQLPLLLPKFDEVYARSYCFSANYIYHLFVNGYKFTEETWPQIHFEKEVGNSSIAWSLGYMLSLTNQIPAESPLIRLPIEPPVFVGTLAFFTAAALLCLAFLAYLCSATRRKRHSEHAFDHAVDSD

human NTPDase3 [2] = molecular target: T5, human NTPDase3; assay: Hydrolysis by human NTPDase3; format: in vitro ADME; design: made in house; host or cells: COS-7 cells (transfected; protein extract); settings: 100 μM, 1 h, activity with 100 μM ATP = 100%

Compound: Nc1ncnc2c1ncn2[C@@H]1O[C@H](COP(=O)(O)CP(=O)(O)OP(O)(O)=S)[C@@H](O)[C@H]1O [APCPP-γ-S, adenosine 5′-[Pγ-thio]-α,β-methylenetriphosphate]
- EC50 (human P2Y11-R): > 10000 nM
- times more potent than ATP at the P2Y11 receptor (human P2Y11-R): 6.7 fold
- EC50 (human P2Y11-R; agonist, read-out: EC50 at the P2Y11 receptor): 1000 nM
- Hydrolysis by NTPDase8 (human NTPDase8): 5.2 ± 0.2%
- effect on human NTPDase2 activity (human NTPDase2): 15.4 ± 0.7%
- effect on human NTPDase1 activity (human NTPDase1): 18.7 ± 0.8%
- effect on human NTPDase3 activity (human NTPDase3 [1]): 26.8 ± 1.1%
- Hydrolysis by NTPDase3 (human NTPDase3 [2]): 4.8 ± 0.2%
